SMILES strings stand for the structures.

Melting point data for 1 compound are collected here from US20030207872A1, “OMEGA-CARBOXYARYL SUBSTITUTED DIPHENYL UREAS AS RAF KINASE INHIBITORS” (BAYER CORPORATION, priority 2002, published 2003).

As to `COC(=O)c1ccc(Oc2ccc(NC(=O)Nc3ccc(Cl)c(C(F)(F)F)c3)cc2)cn1` [Entry 55, N-(4-chloro-3-(trifluoromethyl)phenyl)-N′-(4-(2-(methoxycarbonyl)-5-pyridyloxy)phenyl) urea], the melting point lay in the range of 228 to 230 °C.

A word on the melting point: it is the temperature of the solid-liquid transition.
